Reference: the NIST ThermoML archive (doi:10.1016/j.fluid.2014.04.002)

Assay: xn = mol fraction of the nth substance listed
Conditions: 101 kPa, Liquid; for viscosity: Concentric cylinders viscometry; for mass density: Vibrating tube method

COCCOCCOCCOCCOC [2,5,8,11,14-pentaoxapentadecane] + CCOC(=O)C(C)O
Conditions	mass density, 308.15 K [kg/m3]	mass density, 313.15 K [kg/m3]	mass density, 318.15 K [kg/m3]	mass density, 323.15 K [kg/m3]	viscosity, 308.15 K [mPa·s]	viscosity, 313.15 K [mPa·s]	viscosity, 318.15 K [mPa·s]	viscosity, 323.15 K [mPa·s]
x2 = 0	998.153	993.523	988.892	984.262	2.668	2.407	2.185	2.003
x2 = 0.0999	999.806	995.132	990.453	985.775	2.626	2.367	2.147	1.972
x2 = 0.1999	1001.67	996.945	992.217	987.487	2.593	2.336	2.115	1.943
x2 = 0.2999	1003.5	998.729	993.944	989.156	2.557	2.301	2.081	1.91
x2 = 0.3998	1005.51	1000.64	995.8	990.94	2.511	2.257	2.041	1.87
x2 = 0.4999	1007.57	1002.66	997.738	992.806	2.452	2.2	1.991	1.818
x2 = 0.6001	1009.68	1004.68	999.671	994.651	2.385	2.137	1.932	1.763
x2 = 0.6998	1011.95	1006.87	1001.77	996.689	2.293	2.053	1.854	1.69
x2 = 0.8001	1014.25	1009.04	1003.81	998.562	2.184	1.953	1.76	1.605
x2 = 0.9	1016.16	1010.8	1005.43	1000.06	2.046	1.827	1.642	1.496
